Results on one molecule are retold here after patent US20240366602A1, “COMBINATION THERAPY OF APELIN RECEPTOR AGONIST AND GLP-1 RECEPTOR AGONIST FOR TREATING A DISEASE OR CONDITION ASSOCIATED WITH WEIGHT GAIN” (BioAge Labs, Inc., priority 2023, published 2024).

Several values for one entry are separate records, joined by “and”; a condition that tells them apart may be missing. Identical values can stand only once. Entries after “also recorded” stand apart in the source; their conditions may differ.

The assay relates to healthy volunteers aged≥65 years. The assay is described as follows: Phase 1b Part B (MD) 10-day bed rest muscle atrophy study. The format is in vivo, human. On the procedure: In Part B, of the 30 subjects enrolled, all of which are ≥65 years of age. […] In the multi-dose cohorts (1A, 1B, 1C), PD parameters for effects on changes in insulin sensitivity and muscle indices during a period of bed rest are measured and evaluated to better inform decisions regarding choice of dose and direction of further development.
In each of the 3 cohorts in Part B, 30 total subjects are enrolled to receive treatment in either Cohort 1A, Cohort 1B, or Cohort 1C. Cohort 1A includes 10 subjects who all receive placebo NS over a 1 hour infusion for 10 days on Days 1 through Day 10. […] Patients are at bed rest for the entire 10-day duration of treatment.
Vital signs was collected daily and include diastolic and systolic blood pressure and pulse. On Days −1, 1, 5, and 10, vital signs was collected at the following timepoints: predose (additionally temperature and respiratory rate), 0.25 h, 0.5 h, 0.75 h, 1 h, 2 h, 3 h, 4 h, 6 h, 8 h, and 12 h after the start of study drug infusion. Vital signs will also be collected on Day 10 (23 h) and before discharge on Day 12. • D. Safety laboratory tests include complete blood count, clinical chemistries, and urinalysis. • E. Samples are to be collected in the morning. Subjects are to be fasting from 10:00 PM onward (min 8 hours fast) each night but may drink as much water as requested. • F. ECGs are to be taken predose and immediately following the completion of the 1-hour infusion. On Day 11, an ECG will also be taken again 23 h after the start of the Day 10 study drug infusion. • G. AEs was recorded from the start time of the first consumption of heavy water until the end of the subject's participation in the study. At discharge from the unit, any ongoing AEs was documented in source and in EDC was followed until the event is resolved or stabilized. […] On Days 1, 5, and 10, PK samples were collected at the following timepoints: predose, 0.25 h, 0.5 h, 0.75 h, 1 h, 2 h, 3 h, 4 h, 6 h, 8 h, and 12 h after the start of study drug infusion. Samples will also be collected 24 h (Day 11), 48 h (Day 12), 72 h (Day 13), and 96 h (Day 14) after the start of the last infusion. PK samples were taken from the opposite arm used for the IV infusion. • J. Continuous cardiac ECG telemetry monitoring was used starting on Day 1 pre-dose and continuing through the end of dosing on Day 10. • K. Subjects were asked to remain in their beds, apart from using a wheelchair to be taken to the shower and they will shower seated. They will also use a wheelchair to get to and from the bathroom. When not in bed, subjects were in a wheelchair. • L. Subjects will wear the pneumatic compression cuffs the entire duration of bed rest, except for when in a wheelchair to use the bathroom and shower. • M. Muscle circumference, cross-sectional area, color flow analysis, AP diameter, and echo density of the vastus lateralis and gastrocnemius were measured by ultrasound. Ultrasound imaging must be conducted by the same technician throughout the study for all subjects. […]

Setting [1] is: 10-day bed rest, BGE-105 240 mg daily (cohort MD 1B).
Setting [2] is: 10-day bed rest, BGE-105 240 mg daily (cohort MD 1B), vastus lateralis ultrasound.
[3] abbreviates: 10 days of bed rest, ultrasound.
Setting [4] is: BGE-105 240 mg once daily IV for 10 days vs placebo.

With `COc1cccc(OC)c1-n1c(NS(=O)(=O)[C@@H](C)[C@H](C)c2ncc(C)cn2)nnc1-c1cncc(C)c1` [BGE-105, (2S,3R)—N-(4-(2,6-dimethoxyphenyl)-5-(5-methyl-3-pyridinyl)-4H-1,2,4-triazol-3-yl)-3-(5-methyl-2-pyrimidinyl)-2-butanesulfonamide], under setting [1], the “Muscle grade (progression), % change: baseline to D10” value is on record as −9% and the “Thigh circumference, % change: baseline to D10” value was “+0.8%”. Under “10-day bed rest, BGE-105 240 mg daily (cohort MD 1B), biopsy”, the “Cumulative protein synthesis, % change: baseline to D10” value is reported as 22%. Further, under setting [2], the “AP diameter (thickness), % change: baseline to D10” value was −8.0% and the “Cross-sectional area (CSA), % change: baseline to D10” value is −5.7%. Besides, the “Muscle quality grade worsened (grade 1 to grade 2), number of volunteers” value (10-day bed rest, ultrasound echo density, placebo 8 of 10) is 1 of 11 and 1 out of 11 and (1 out of 11). The “Synthesis of myofibrillar structural proteins such as myosin and troponin” value (10 days bed rest, D2O method and muscle biopsy) is listed as “preserved compared to placebo”. Besides, the “Muscle protein synthesis, muscle microbiopsy of vastus lateralis” value (10 days of bed rest, bed rest-induced decrease, vs placebo) is reported as “significantly ameliorated; also recorded: elevated rate of muscle protein synthesis”. Also, under “10 days of bed rest, n=11”, the “Improvement in thigh circumference relative to placebo” value turned out to be 100%. For the same molecule, under setting [3], the “Improvement in vastus lateralis cross-sectional area relative to placebo” value was found to be 58% and the “Improvement in vastus lateralis thickness relative to placebo” value stood at 73%. Also, under setting [4], the “Reduction in loss of vastus lateralis cross-sectional area” value is on record as over 50% and the “Reduction in loss of vastus lateralis muscle thickness” value was determined as 75%. In addition, the “Mean normalized fraction synthetic rate” value (BGE-105 treated patients with elevated rate, after 10 days of bed rest) is reported as 0.18-2.2. In addition, where the note is “Cohort 1B vs Cohort 1A”, the “Improvement in muscle dimension (muscle size by ultrasound)” value was about 75%. Besides, the “Physical activity, step ratio by wearable activity device” value (Day 10 through Day 60 (post-bedrest), vs placebo) is listed as “increase in physical activity; also recorded: more pronounced in the BGE-105 group”. The “Reduction of the cross-sectional area of the Vastus Lateralis” value (after 10-day bed rest, mean percent change from baseline, placebo 19.47%) is 8.041%. The “Reduction of vastus lateralis diameter” value (after 10-day bed rest, mean percent change from baseline, placebo 21.18%) stood at 5.664%. The “Patients with elevated rate of muscle protein synthesis” value (after 10 days of bed rest, placebo 3 out of 10) is on record as 8 out of 11. The “Patients with elevated rate of muscle protein synthesis” value (after 10 days of bed rest, placebo 30%) is listed as “about 72.7%”. Further, the “Increase in thigh circumference” value (after the 10-day bed rest period, placebo 6.438% reduction) is given as 0.8%. Further, the “Echo density measurements, increase” value (treatment group (Cohort 1B, 240 mg daily), placebo 6.4% decrease) came to 0.8%.
